Measured values from the supplement of paper PMC10307832.

Assays:
Experiment in all cases: relative viability (nuclei count vs DMSO), 5 days (fraction); higher = more cells survive
[1] = compound: C1=CC(=CC=C1NC(=S)NNC2=C(C=C(C=C2[N+](=O)[O-])C(F)(F)F)[N+](=O)[O-])F [Kobe2602] + Cc1cc(Nc2cc(N3CCN(C)CC3)nc(Sc3ccc(NC(=O)C4CC4)cc3)n2)n[nH]1 [Tozasertib] (partner 0.1 µM)
Method in brief: (§1)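 Relative viability equals treated-well nuclei counts divided by vehicle-well nuclei counts. Counts came from 4× images of lung cancer cell lines grown in 1536-well plates for 5 days after pin-tool dosing on the day after seeding. Dosing used one drug alone or a fixed anchor-drug dose plus five library-drug doses (not always all listed) in √10 steps, and values are medians of duplicate plates.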

[2] = compound: O[C@@H](COc1cccc2ncccc12)CN1CCN([C@@H]2c3ccccc3[C@@H]3[C@H](c4ccccc42)C3(F)F)CC1 [Zosuquidar] + Cc1nc(Nc2ncc(C(=O)Nc3c(C)cccc3Cl)s2)cc(N2CCN(CCO)CC2)n1 [Dasatinib] (partner 0.075 µM)
Method in brief: as §1

[3] = compound: COc1cc2nccc(Oc3ccc(NC(=O)C4(C(=O)Nc5ccc(F)cc5)CC4)cc3)c2cc1OC [Cabozantinib] + CC(=O)Nc1cccc(-n2c(=O)n(C3CC3)c(=O)c3c(Nc4ccc(I)cc4F)n(C)c(=O)c(C)c32)c1 [Trametinib] (partner 0.02 µM)
Method in brief: as §1

[4] = compound: COc1cc2nccc(Oc3ccc(NC(=O)C4(C(=O)Nc5ccc(F)cc5)CC4)cc3)c2cc1OC [Cabozantinib] + Nc1nc2[nH]cc(CCc3ccc(C(=O)N[C@@H](CCC(=O)O)C(=O)O)cc3)c2c(=O)[nH]1 [Pemetrexed] (partner 0.2 µM)
Method in brief: as §1

Row | Cell Line | relative viability ([1]; first compound 0.2 µM) | relative viability ([1]; first compound 0.6325 µM) | relative viability ([1]; first compound 2 µM) | relative viability ([1]; first compound 6.325 µM) | relative viability ([1]; first compound 20 µM) | relative viability ([2]; first compound 0.01 µM) | relative viability ([2]; first compound 0.03162 µM) | relative viability ([2]; first compound 0.1 µM) | relative viability ([2]; first compound 0.3162 µM) | relative viability ([2]; first compound 1 µM) | relative viability ([3]; first compound 0.02 µM) | relative viability ([3]; first compound 0.06325 µM) | relative viability ([3]; first compound 0.6325 µM) | relative viability ([3]; first compound 2 µM) | relative viability ([4]; first compound 0.02 µM) | relative viability ([4]; first compound 0.06325 µM) | relative viability ([4]; first compound 0.6325 µM) | relative viability ([4]; first compound 2 µM) | relative viability ([3]; first compound 0.2 µM) | relative viability ([4]; first compound 0.2 µM)
1 | HCC-827 | 0.444 | 0.448 | 0.391 | 0.416 | 0.425 | 0.293 | 0.348 | 0.237 | 0.272 | 0.351 | 0.529 | 0.586 | 0.504 | 0.476 | 0.266 | 0.251 | 0.214 | 0.274 | – | –
2 | HOP-62 | 0.399 | 0.359 | 0.418 | 0.341 | 0.335 | 0.702 | 0.528 | 0.594 | 0.679 | 0.633 | 0.413 | 0.389 | 0.376 | 0.349 | 0.271 | 0.364 | 0.336 | 0.3 | 0.4 | 0.34
3 | LC-2-ad | 0.478 | 0.534 | 0.489 | 0.453 | 0.472 | 0.509 | 0.74 | 0.531 | 0.589 | 0.613 | 0.924 | 0.948 | 0.761 | 0.48 | 0.279 | 0.285 | 0.278 | 0.253 | 0.92 | 0.271
4 | LCLC-97TM1 | 0.219 | 0.292 | 0.175 | 0.186 | 0.196 | 0.776 | 0.756 | 0.73 | 0.761 | 0.898 | 0.197 | 0.236 | 0.212 | 0.19 | 0.155 | 0.179 | 0.17 | 0.17 | 0.214 | 0.181
5 | LCLC-103H | 0.498 | 0.535 | 0.469 | 0.436 | 0.479 | 0.429 | 0.447 | 0.399 | 0.488 | 0.537 | 0.716 | 0.709 | 0.68 | 0.667 | 0.45 | 0.451 | 0.527 | 0.465 | 0.678 | 0.459
6 | LK-2 | 0.174 | 0.188 | 0.189 | 0.174 | 0.174 | 0.31 | 0.41 | 0.291 | 0.297 | 0.314 | 0.678 | 0.836 | 0.863 | 0.781 | – | 0.427 | 0.266 | 0.296 | 0.717 | 0.236
7 | LOU-NH91 | 0.703 | 0.703 | 0.658 | 0.685 | 0.739 | 0.515 | 0.377 | – | 0.601 | 0.552 | 0.778 | 0.866 | 0.785 | 0.748 | 0.424 | 0.366 | 0.371 | 0.413 | 0.692 | 0.487
8 | LU99A | 0.287 | 0.323 | 0.286 | 0.237 | 0.298 | 0.458 | 0.577 | 0.505 | 0.552 | 0.569 | 0.475 | 0.56 | 0.573 | 0.41 | 0.18 | 0.199 | 0.173 | 0.229 | 0.535 | 0.216
9 | LXF-289 | 0.192 | 0.191 | 0.181 | 0.203 | 0.185 | 0.217 | 0.125 | 0.237 | 0.301 | 0.182 | 0.735 | 0.654 | 0.719 | 0.695 | 0.957 | 0.953 | 0.883 | 0.897 | 0.659 | 0.868
10 | NCI-H23 | 0.464 | 0.342 | 0.308 | 0.829 | 0.236 | 0.713 | 0.811 | 0.739 | 0.983 | 0.806 | – | 0.358 | 0.377 | 0.389 | – | 0.819 | 0.655 | 0.476 | 0.42 | 0.471
11 | NCI-H322M | 0.518 | 0.534 | 0.493 | 0.538 | 0.533 | 0.242 | 0.229 | 0.242 | 0.269 | 0.227 | 0.521 | 0.546 | 0.525 | 0.545 | 0.614 | 0.744 | 0.628 | 0.613 | 0.438 | 0.578
12 | NCI-H358 | 0.0888 | 0.122 | 0.0944 | 0.109 | 0.103 | 0.144 | 0.172 | 0.142 | 0.183 | 0.153 | 0.114 | 0.138 | 0.139 | 0.126 | 0.181 | 0.171 | 0.18 | 0.166 | 0.136 | 0.16
13 | NCI-H441 | 0.692 | 0.638 | 0.543 | 0.708 | 0.635 | 0.521 | 0.606 | 0.574 | 0.683 | 0.718 | 0.339 | 0.502 | 0.441 | 0.361 | 0.243 | 0.237 | 0.229 | 0.235 | 0.421 | 0.288
14 | NCI-H727 | 0.716 | 0.583 | 0.741 | 0.702 | 0.504 | 0.373 | 0.387 | 0.424 | 0.429 | 0.355 | 0.42 | 0.409 | 0.395 | 0.386 | – | – | – | – | 0.443 | –
15 | NCI-H1563 | – | – | – | – | – | 0.435 | 0.47 | 0.51 | 0.459 | 0.454 | – | – | – | – | 0.645 | 0.869 | 0.684 | 0.802 | – | 0.984
16 | NCI-H1623 | 0.42 | 0.433 | 0.396 | 0.439 | 0.412 | 0.499 | 0.634 | 0.487 | 0.607 | 0.498 | – | – | – | – | – | – | – | – | – | –
17 | NCI-H1648 | 0.465 | 0.43 | 0.468 | 0.513 | 0.393 | – | – | – | – | – | 0.501 | 0.448 | 0.672 | 0.419 | 0.73 | 0.908 | 0.793 | 0.82 | – | –
18 | NCI-H1792 | – | – | – | – | – | 0.819 | 0.514 | – | 0.927 | 0.757 | – | 0.483 | 0.417 | 0.32 | – | 1.27 | 0.986 | 0.608 | 0.455 | 0.868
